Experimental data: patent publication US20200071361A1, “ENGINEERED ANTIMICROBIAL AMPHIPHILIC PEPTIDES AND METHODS OF USE” (priority 2017, published 2020)

Test system: Enterobacter spp. isolates (n = 102)
Test: Broth microdilution MIC, clinical isolate panel
Format: cell-based, Enterobacter aerogenes and E. cloacae
Details: Enterobacter spp. (n = 102)
Method: Comparator antibiotics were supplied by Micromyx, and stock solutions were prepared on the first day of testing using solvents recommended by CLSI (1). Stock solutions of all compounds were made at 40× the final testing concentration and stored at −80° C. prior to testing. Information regarding compound source, catalog and lot number, testing concentrations and drug diluent for the comparators and test agent are detailed below in Table 3.
The test organisms evaluated in this study consisted of clinical isolates from the Micromyx Repository and reference isolates from the American Type Culture Collection (ATCC; Manassas, Va.). The clinical isolates were obtained from USA hospitals. Upon initial receipt at Micromyx, the organisms were sub-cultured onto an appropriate agar medium. Following incubation, colonies were harvested from these plates and cell suspensions prepared and frozen at −80° C. with a cryoprotectant. Prior to testing, the isolates were streaked from frozen vials onto Trypticase Soy Agar with 5% sheep blood (Becton Dickenson [BD]; Sparks, Md.; Lot Nos. 7173618, 7166759, 7208688, 72144895, 7228505 and Remel Lenexa, Kans. Lot No. 212574). Plates were incubated at 35° C. overnight.
Mueller Hinton II broth (MHB II; BD; Lot Nos. 6258541 and 7143896) was used for MIC testing of aerobic organisms.
MIC values were determined using a broth microdilution procedure described by CLSI (1, 3). Automated liquid handlers (Multidrop 384, Labsystems, Helsinki, Finland; Biomek 2000 and Biomek FX, Beckman Coulter, Fullerton Calif.) were used to conduct serial dilutions and liquid transfers.
To prepare the drug mother plates, which would provide the serial drug dilutions for the replicate daughter plates, the wells of columns 2-12 of standard 96-well microdilution plates (Costar 3795) were filled with 150 μl of the designated diluent for each row of drug. The test articles and comparator compounds (300 μl at 40× the highest concentration to be tested) were dispensed into the appropriate wells in column 1. The Biomek 2000 was then used to make 2-fold serial dilutions in the mother plates from column 1 through column 11. The wells of Column 12 contained no drug and served as the organism growth control wells for the assay.
The daughter plates were loaded with 185 μL per well of MHB II using the Multidrop 384. The daughter plates were completed on the Biomek FX instrument which transferred 5 µL of drug solution from each well of a mother plate to the corresponding well of each daughter plate in a single step. […]
Plates were stacked 3-4 high, covered with a lid on the top plate, placed in plastic bags, and incubated at 35° C. for 16 to 20 hrs. […] The MIC was read and recorded as the lowest concentration of drug that inhibited visible growth of the organism. […]

With `C[C@H]1COc2c(N3CCN(C)CC3)c(F)cc3c(=O)c(C(=O)O)cn1c23` [Levofloxacin] the “% R (percent of isolates resistant, clinical breakpoints)” value was 4.9%.
